Assays:
wild type PECPS = wild type PECPS (Aquilaria sinensis, UniProt A0A385MEG6); test: ITC binding to wild type PECPS; conditions: mean ± SD (n = 3)
Procedure: (§1) ITC measurements of affinity (KD), stoichiometry (n) and apparent enthalpy change (ΔH°) were obtained using a Nano LV ITC calorimeter (TA Instruments). Samples for cell and injectant solutions were prepared in the same buffer (100 mM KPB, pH 7.5). All experiments were conducted at 37 °C with a stirring speed of 240 rpm and a sequence of 20 injections of 2.5 μL and 380 s delays between succeeding injections. The sample cell was filled with 47–85 μM protein solution (300 μl), while 1.09 mM 4-hydroxyphenylpropionyl-CoA (or 1.15 mM benzoyl-CoA) solution was placed in the syringe. The resulting data were processed with the standard NanoAnalyze software package (version 3.11.0), assuming the model of one type of binding site with an apparent stoichiometry close to 1:1. The first injection resulting in a heat change was disregarded in the later analysis. Titration experiments were performed in triplicate to show reproducibility. Control experiments confirmed that the heats of dilution caused by the reactant being titrated into buffer and the buffer into protein solution were negligible. The heats of dilution for the sample in the cell were subtracted from the final trace before integration with respect to time. The thermodynamic data obtained from the traces were averaged across three runs, and a standard deviation was calculated. Representative ITC thermograms and isotherm plots for experiments can be found in Supplementary Fig. 35.

PECPS A210E = PECPS A210E (Aquilaria sinensis, UniProt A0A385MEG6, A210E); test: ITC binding to PECPS A210E mutant
Procedure: as §1
(§2) Plasmids expressing the PECPS mutants (A210E, F340W, N199L, and N199F) were generated by the Fast Mutagenesis System ([…] BIOTECH) according to the manufacturer’s instructions, using designed primers (Supplementary Table 5). The mutant enzymes were expressed, extracted, and purified by the same procedure as that for the wild type PECPS, and used in the enzyme assay and for crystallization.

PECPS F340W = PECPS F340W (Aquilaria sinensis, UniProt A0A385MEG6, F340W); test: ITC binding to PECPS F340W mutant
Procedure: as §1, §2

PECPS N199L = PECPS N199L (Aquilaria sinensis, UniProt A0A385MEG6, N199L); test: ITC binding to PECPS N199L mutant
Procedure: as §1, §2

PECPS N199F = PECPS N199F (Aquilaria sinensis, UniProt A0A385MEG6, N199F); test: ITC binding to PECPS N199F mutant
Procedure: as §1, with “Representative ITC thermograms and isotherm plots for experiments can be found in Supplementary Fig. 35.” left out

Sequence of PECPS N199L (A0A385MEG6 entry or part of it N199L): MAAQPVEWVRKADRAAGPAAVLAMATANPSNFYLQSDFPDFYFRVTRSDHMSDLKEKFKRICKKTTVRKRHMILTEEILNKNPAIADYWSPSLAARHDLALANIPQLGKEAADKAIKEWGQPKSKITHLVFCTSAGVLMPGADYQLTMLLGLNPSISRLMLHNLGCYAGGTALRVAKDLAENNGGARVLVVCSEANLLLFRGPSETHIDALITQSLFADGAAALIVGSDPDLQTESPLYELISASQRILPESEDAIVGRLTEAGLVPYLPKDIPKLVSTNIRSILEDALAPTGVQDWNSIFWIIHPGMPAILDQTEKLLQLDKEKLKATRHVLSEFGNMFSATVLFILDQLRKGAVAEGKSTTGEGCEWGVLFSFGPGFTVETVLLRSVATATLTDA
Sequence of PECPS F340W (A0A385MEG6 entry or part of it F340W): as the sequence (A0A385MEG6 entry or part of it N199L) above, with L199N, F340W counted along it
Sequence of PECPS A210E (A0A385MEG6 entry or part of it A210E): as the sequence (A0A385MEG6 entry or part of it N199L) above, with L199N, A210E counted along it
Sequence of wild type PECPS (A0A385MEG6 entry or part of it): as the sequence (A0A385MEG6 entry or part of it N199L) above, with L199N counted along it
Sequence of PECPS N199F (A0A385MEG6 entry or part of it N199F): as the sequence (A0A385MEG6 entry or part of it N199L) above, with L199F counted along it

For `CC(C)(COP(=O)(O)OP(=O)(O)OC[C@H]1O[C@@H](n2cnc3c(N)ncnc32)[C@H](O)[C@@H]1OP(=O)(O)O)[C@@H](O)C(=O)NCCC(=O)NCCSC(=O)CCc1ccc(O)cc1` [4-hydroxyphenylpropionyl-CoA], the “-TΔS” value (wild type PECPS; ITC) was -3.748 ± 0.464 kcal/mol, the “n (stoichiometry)” value (wild type PECPS; ITC) was 1.10±0.12 and the ΔH (wild type PECPS; ITC) was -2.968 ± 0.425 kcal/mol. The ΔS (wild type PECPS; ITC) was 50.56 ± 6.28 J/molꞏK, the Ka (wild type PECPS; ITC, listed as 4-hydorxyphenylpropionyl-CoA) was 54.06 ± 4.14 mM⁻¹ and the Kd (wild type PECPS; Supplementary Table 4, ITC) was 18.6 ± 1.37 µM. The Kd (PECPS A210E) was 40.1 ± 4.52 µM, the “binding affinity, times lower than that of the wild-type” value (PECPS A210E; A210E vs wild type PECPS, ITC) was 2.1 times and the “-TΔS” value (PECPS A210E; ITC, mean ± SD (n = 3)) was -2.483 ± 0.397 kcal/mol. The Ka (PECPS A210E; ITC, mean ± SD (n = 3)) was 25.12 ± 2.98 mM⁻¹, the “n (stoichiometry)” value (PECPS A210E; ITC, mean ± SD (n = 3)) was 0.99±0.02 and the ΔG (PECPS A210E; ITC, mean ± SD (n = 3)) was -6.243 ± 0.0717 kcal/mol. The ΔH (PECPS A210E; ITC, mean ± SD (n = 3)) was -3.76 ± 0.323 kcal/mol, the ΔS (PECPS A210E; ITC, mean ± SD (n = 3)) was 33.49 ± 5.34 J/molꞏK and the Kd (PECPS F340W) was 12.4 ± 2.07 µM. The “-TΔS” value (PECPS F340W; ITC, mean ± SD (n = 3)) was -5.251 ± 0.28 kcal/mol, the Ka (PECPS F340W; ITC, mean ± SD (n = 3)) was 82.07 ± 12.96 mM⁻¹ and the “n (stoichiometry)” value (PECPS F340W; ITC, mean ± SD (n = 3)) was 0.91±0.06. The ΔG (PECPS F340W; ITC, mean ± SD (n = 3)) was -6.969 ± 0.1 kcal/mol, the ΔH (PECPS F340W; ITC, mean ± SD (n = 3)) was -1.72 ± 0.177 kcal/mol and the ΔS (PECPS F340W; ITC, mean ± SD (n = 3)) was 70.83 ± 3.75 J/molꞏK. For the same molecule, the Kd (PECPS N199L) was 120 ± 10.8 µM, the Ka (PECPS N199L; ITC, mean ± SD (n = 3)) was 8.35 ± 0.71 mM⁻¹ and the “n (stoichiometry)” value (PECPS N199L; ITC, mean ± SD (n = 3)) was 0.87±0.06. For the same molecule, the ΔG (PECPS N199L; ITC, mean ± SD (n = 3)) was -5.564 ± 0.055 kcal/mol, the ΔH (PECPS N199L; ITC, mean ± SD (n = 3)) was -4.708 ± 0.402 kcal/mol and the ΔS (PECPS N199L; ITC, mean ± SD (n = 3)) was 11.50 ± 4.86 J/molꞏK. The “binding affinity, times weaker than that of wild type PECPS” value (PECPS N199L; N199L vs wild type PECPS, ITC) was 6.5 times and the Kd (PECPS N199F) was roughly 1000 µM.
